Data: ChEMBL document CHEMBL5233265, “Recent advances in the design and development of formyl peptide receptor 2 (FPR2/ALX) agonists as pro-resolving agents with diverse therapeutic potential” (Eur J Med Chem, 2021)
Values belong to the compound of their own block, whether it stands above or below them.

What was measured:
Assay type in all cases: cell-based; call rule not given here
[1] = target: T1, fMet-Leu-Phe receptor (Homo sapiens) (UniProt P21462); assay: Agonist activity at FPR1 (unknown origin) expressed in CHO/Galpha16 cells assessed as maximal calcium flux at 0.61 to 10000 nM by FLIPR assay relative to control; conditions: dose 0.61-10000 nM
T1 sequence (whole entry): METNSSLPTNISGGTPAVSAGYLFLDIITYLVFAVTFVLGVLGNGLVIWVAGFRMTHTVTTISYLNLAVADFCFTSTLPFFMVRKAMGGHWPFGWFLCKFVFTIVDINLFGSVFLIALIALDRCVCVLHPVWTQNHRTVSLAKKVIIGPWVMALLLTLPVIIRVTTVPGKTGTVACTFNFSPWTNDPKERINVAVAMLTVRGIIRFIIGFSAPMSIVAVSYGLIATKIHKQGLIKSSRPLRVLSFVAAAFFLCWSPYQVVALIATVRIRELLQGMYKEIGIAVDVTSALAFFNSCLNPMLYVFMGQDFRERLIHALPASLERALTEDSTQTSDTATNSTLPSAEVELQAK

[2] = target: T2, N-formyl peptide receptor 2 (Homo sapiens) (UniProt P25090); assay: Agonist activity at FPR2 (unknown origin) expressed in CHO/Galpha16 cells assessed as maximal calcium flux at 0.61 to 10000 nM by FLIPR assay relative to control; conditions: dose 0.61-10000 nM
T2 sequence (whole entry): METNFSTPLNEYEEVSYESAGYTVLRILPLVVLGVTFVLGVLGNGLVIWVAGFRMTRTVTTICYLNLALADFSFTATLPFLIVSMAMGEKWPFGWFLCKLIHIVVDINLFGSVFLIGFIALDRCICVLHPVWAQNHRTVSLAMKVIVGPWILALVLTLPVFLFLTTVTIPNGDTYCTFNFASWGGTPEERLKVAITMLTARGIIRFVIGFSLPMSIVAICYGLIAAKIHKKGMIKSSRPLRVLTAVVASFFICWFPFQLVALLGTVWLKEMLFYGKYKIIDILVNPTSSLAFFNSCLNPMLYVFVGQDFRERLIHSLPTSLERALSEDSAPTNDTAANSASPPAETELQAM

Homo sapiens = species on record: Homo sapiens; assay: Selectivity index, ratio of EC50 for agonist activity at FPR2 (unknown origin) expressed in CHO/Galpha16 cells to EC50 for FPR1 (unknown origin) expressed in CHO/Galpha16 cells
[3] = target: T3, N-formyl peptide receptor 2 (Homo sapiens, UniProt P25090); assay: Agonist activity at human FPR2 transfected in HL-60 cells assessed as increase in intracellular calcium flux incubated for 30 mins by Fluo-4 AM dye based fluorometer analysis; conditions: read-out: EC50
T3 sequence (P25090 whole entry): T2 sequence (whole entry)

fMet-Leu-Phe receptor [4] = target: T4, fMet-Leu-Phe receptor (Homo sapiens, UniProt P21462); assay: Agonist activity at human FPR1 transfected in HL-60 cells assessed as increase in intracellular calcium flux incubated for 30 mins by Fluo-4 AM dye based fluorometer analysis
T4 sequence (P21462 whole entry): T1 sequence (whole entry)

[5] = target: T2, N-formyl peptide receptor 2 (Homo sapiens); assay: Agonist activity at human FPR2 transfected in HL-60 cells assessed as maximal intracellular calcium flux incubated for 30 mins by Fluo-4 AM dye based fluorometer analysis relative to control; conditions: filed as agonist
[6] = target: T3, N-formyl peptide receptor 2; assay: Agonist activity at human FPR2 expressed in CHO cells assessed as cAMP level incubated for 1.5 hr by HTRF assay
fMet-Leu-Phe receptor [7] = target: T4, fMet-Leu-Phe receptor; assay: Agonist activity at human FPR1 expressed in CHO cells assessed as cAMP level incubated for 1.5 hr by HTRF assay
fMet-Leu-Phe receptor [8] = target: T4, fMet-Leu-Phe receptor; assay: Agonist activity at human FPR1 expressed in CHO cells assessed as increase in calcium flux incubated for 50 mins by FLIPR calcium 5 dye based fluorescence assay
[9] = target: T3, N-formyl peptide receptor 2; assay: Agonist activity at human FPR2 expressed in CHO cells assessed as increase in calcium flux incubated for 50 mins by FLIPR calcium 5 dye based fluorescence assay
fMet-Leu-Phe receptor [10] = target: T4, fMet-Leu-Phe receptor; assay: Agonist activity at FPR1 (unknown origin) expressed in CHO/Galpha16 cells assessed as increase in calcium flux by FLIPR assay
[11] = target: T3, N-formyl peptide receptor 2; assay: Agonist activity at FPR2 (unknown origin) expressed in CHO/Galpha16 cells assessed as increase in calcium flux by FLIPR assay

EC50 [6]: < 0.1 µM
EC50 (fMet-Leu-Phe receptor [7]; cho): Not Active
Compound: CS(=O)(=O)NCC1(c2ccc(N3CCC[C@@H](NC(=O)Nc4ccc(C(F)(F)F)nc4)C3=O)cc2)CCCC1

EC50 [6]: < 0.005 µM
Compound: O=C(Nc1ccc(C(F)(F)F)cc1)N[C@@H]1CCCN(c2ccc(-c3ccccc3F)cc2)C1=O

EC50 (fMet-Leu-Phe receptor [7]; read-out: EC50): > 5 µM
Compound: CP(C)(=O)c1ccccc1-c1ccc(N2CC3(CC3)[C@@H](NC(=O)Nc3ccc(Cl)cc3F)C2=O)c(F)c1F

EC50 [6]: 0.025 µM
Compound: CP(C)(=O)c1ccccc1-c1ccc(N2CC[C@@H](NC(=O)Nc3ccc(Cl)cc3)C2=O)c(F)c1F

EC50 [6]: 0.057 µM
Compound: CC1(C)CN(c2ccc(-c3ccccc3P(C)(C)=O)c(F)c2F)C(=O)[C@@H]1NC(=O)Nc1cnc(Cl)cn1

EC50 [6]: < 0.005 µM
Compound: NC(=O)c1ccccc1-c1ccc(N2CCC[C@@H](NC(=O)Nc3ccc(C(F)(F)F)cc3)C2=O)cc1

EC50 [6]: 0.0029 µM
Compound: CP(C)(=O)c1ccccc1-c1ccc(N2CC[C@@H](NC(=O)Nc3csc(Cl)c3)C2=O)c(F)c1F

EC50 [6]: 0.01 µM
Compound: O=C(Nc1ccc(C(F)(F)F)cc1)N[C@@H]1CCCN(c2ccc(N3CC4(COC4)C3)cc2)C1=O

EC50 [6]: 0.022 µM
EC50 (fMet-Leu-Phe receptor [7]; read-out: EC50): 2 µM
Compound: Cc1cnc(NC(=O)N[C@@H]2CCCN(c3ccc(-c4ccccc4NS(C)(=O)=O)cc3F)C2=O)cn1

The next lines start with the compound.

Compound: O=C(CNC(=O)Nc1ccc(Br)cc1)N[C@@H](Cc1ccccc1)C(=O)O
Emax [1]: 97%
Emax [2]: 197%
Ratio EC50 (Homo sapiens): 24

Compound: COc1ccc(NC(=O)N[C@H](Cc2ccc(C#N)cc2)C(=O)NCC2(c3cccc(O)c3)CC2)cc1
EC50 [3]: 7 µM
EC50 (fMet-Leu-Phe receptor [4]; hl-60): Not Active
Emax [5]: 70%

Compound: CC(C)C[C@H](NC(=O)CCNC(=O)Nc1ccc(Br)cc1)C(=O)O
Emax [1]: 99%
Emax [2]: 81%
Ratio EC50 (Homo sapiens): 74

Compound: COc1cc(F)c([C@@H]2CNC(=O)[C@H]2NC(=O)NC2(c3cccc(C)n3)CC2)c(F)c1
EC50 [6]: < 0.01 µM
EC50 (fMet-Leu-Phe receptor [7]; cho): Not Active

Compound: CC(C)C(C(=O)O)C(C)NC(=O)Nc1ccc(Br)cc1 (stereo in doubt; 20)
Emax [1]: 91%
Emax [2]: 75%
Ratio EC50 (Homo sapiens): 101

Compound: CC(=O)N1CCN(c2ccc(N3CCC[C@@H](NC(=O)Nc4ccc(C(F)(F)F)cc4)C3=O)cc2)CC1
EC50 [6]: 0.1 µM

Compound: COc1ccc([C@H]2CCN(Cc3cccnc3)C(=O)[C@@H]2NC(=O)Nc2ccc(F)cc2)cc1 (relative stereo)
EC50 (fMet-Leu-Phe receptor [8]): 0.001 µM
EC50 [9]: 0.001 µM

Compound: Cc1cccc(C2(NC(=O)N[C@@H]3C(=O)NC[C@H]3c3c(F)cc(Br)cc3F)CC2)n1
EC50 [6]: 0.01 µM
EC50 (fMet-Leu-Phe receptor [7]; cho): Not Active

Compound: COc1ccc([C@H]2CCN(Cc3ccccn3)C(=O)[C@@H]2NC(=O)Nc2ccc(F)cc2)cc1 (relative stereo)
EC50 (fMet-Leu-Phe receptor [8]): 0.001 µM
EC50 [9]: < 0.001 µM

Compound: COc1cc(F)c([C@H]2CCN(CC3CC3)C(=O)[C@@H]2NC(=O)Nc2ccc(Cl)cc2)c(F)c1
EC50 (fMet-Leu-Phe receptor [8]): 0.001 µM
EC50 [9]: < 0.001 µM

Compound: COc1ccc(NC(=O)N[C@@H](Cc2ccc(C#N)cc2)C(=O)NCC2(c3cccc(O)c3)CC2)cc1
EC50 [3]: 0.18 µM
EC50 (fMet-Leu-Phe receptor [4]; read-out: EC50): 1.4 µM
Emax [5]: 115%

Compound: CCC[C@H](NC(=O)CNC(=O)Nc1ccc(Br)cc1)C(=O)O
Emax [1]: 98%
Emax [2]: 105%
Ratio EC50 (Homo sapiens): 62

Compound: COc1ccc([C@@H]2CCN(Cc3ccccn3)C(=O)[C@@H]2NC(=O)Nc2ccc(F)cc2)cc1 (relative stereo)
EC50 (fMet-Leu-Phe receptor [8]): 0.001 µM
EC50 [9]: 0.001 µM

Compound: CC(C)C(C(=O)O)C(C)NC(=O)Nc1ccc(Br)cc1 (stereo in doubt; 18)
EC50 (fMet-Leu-Phe receptor [10]): 0.051 µM
EC50 [11]: 0.855 µM

Compound: Cc1cccc(C2(NC(=O)N[C@@H]3C(=O)NC[C@H]3c3c(F)cc(Cl)cc3F)CC2)n1
EC50 [6]: 0.1 µM
EC50 (fMet-Leu-Phe receptor [7]; cho): Not Active

Compound: COc1cc(F)c([C@@H]2CNC(=O)[C@H]2Nc2nnc(-c3ccc(Cl)cc3)s2)c(F)c1
EC50 [6]: < 0.04 µM
EC50 (fMet-Leu-Phe receptor [7]; cho): Not Active

Compound: COc1cc(F)c([C@H]2CCN(CCC(F)F)C[C@@H]2NC(=O)Nc2ccc(Cl)cc2)c(F)c1 (relative stereo; form 1)
EC50 (fMet-Leu-Phe receptor [8]): 0.001 µM
EC50 [9]: 0.001 µM
